The structures appear in SMILES notation.

The experiment has as its target T1, human HSL (Homo sapiens, UniProt Q05469).
T1 construct: generate a full length human HSL ORF with a 3′-His6 tag; made in house; host or cells: High 5 insect cells (baculovirus, pFast-BAC)
T1 sequence (Q05469 1-1076): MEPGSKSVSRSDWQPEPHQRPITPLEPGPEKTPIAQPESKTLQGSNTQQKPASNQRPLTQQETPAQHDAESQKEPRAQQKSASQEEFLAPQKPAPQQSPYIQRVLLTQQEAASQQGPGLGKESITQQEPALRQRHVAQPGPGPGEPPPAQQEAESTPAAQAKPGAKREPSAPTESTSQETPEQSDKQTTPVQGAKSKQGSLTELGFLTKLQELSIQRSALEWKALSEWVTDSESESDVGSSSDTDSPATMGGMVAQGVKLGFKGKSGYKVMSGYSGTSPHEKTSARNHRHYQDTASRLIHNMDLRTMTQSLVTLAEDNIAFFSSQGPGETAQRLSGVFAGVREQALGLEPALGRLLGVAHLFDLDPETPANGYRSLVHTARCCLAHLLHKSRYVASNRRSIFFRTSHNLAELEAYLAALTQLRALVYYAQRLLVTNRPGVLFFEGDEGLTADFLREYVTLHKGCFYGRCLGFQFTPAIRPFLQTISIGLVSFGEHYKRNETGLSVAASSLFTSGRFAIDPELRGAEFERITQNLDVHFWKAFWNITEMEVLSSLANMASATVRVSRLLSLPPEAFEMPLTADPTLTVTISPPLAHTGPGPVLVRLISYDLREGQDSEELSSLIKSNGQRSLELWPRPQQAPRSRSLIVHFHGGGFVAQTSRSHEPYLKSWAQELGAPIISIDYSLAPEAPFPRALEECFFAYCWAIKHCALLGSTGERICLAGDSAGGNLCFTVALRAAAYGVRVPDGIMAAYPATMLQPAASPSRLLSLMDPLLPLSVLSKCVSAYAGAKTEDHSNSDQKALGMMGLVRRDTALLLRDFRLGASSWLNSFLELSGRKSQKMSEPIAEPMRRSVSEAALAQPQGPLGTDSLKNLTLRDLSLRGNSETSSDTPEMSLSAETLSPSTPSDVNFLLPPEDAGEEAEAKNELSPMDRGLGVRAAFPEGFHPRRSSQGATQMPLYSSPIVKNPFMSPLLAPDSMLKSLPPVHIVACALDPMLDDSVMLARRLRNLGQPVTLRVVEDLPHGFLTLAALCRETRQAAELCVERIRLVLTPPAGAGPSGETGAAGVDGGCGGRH
Put plainly: Human Hormone-Sensitive Lipase (HSL) enzyme inhibition assay (colorimetric, DMPT substrate). Type of experiment: biochemical. The note with it: human full length HSL-His6, 2,3-dimercapto-1-propanol tributyrate substrate, 37° C. 20 minutes, absorbance at 405 nm; read-out: HSL hum IC50. In outline: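 Full-length human HSL with C-terminal His6, expressed in baculovirus-infected High 5 cells and Ni-NTA purified, was added (15 ug/ml stock) to 1.5 mM DMPT in 100 mM MOPS pH 7.2, 0.2 mg/ml fatty acid-free BSA containing compound. After 20 min at 37 °C, DTNB with SDS/Triton X-100 was added; A405 read after 15 min at RT.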
As a reminder, the IC50 is the point on the concentration scale where inhibition reaches its midpoint. Consider `COC[C@]1(O)CC[C@]2(CCN(c3ccc(OC(C)C)nc3)C2=O)CC1` [Example 329, (5α,8α)-8-Hydroxy-2-(6-isopropoxy-pyridin-3-yl)-8-methoxymethyl-2-aza-spiro[4.5]decan-1-one], for which the IC50 came out at 170 nM. As to `O=C(NCc1cccc(F)c1)O[C@H]1CC[C@@]2(CCN(c3ccc(OC(F)(F)F)cc3)C2=O)CC1` [Example 10, (3-Fluoro-benzyl)-carbamic acid [(5α,8β)-1-oxo-2-(4-trifluoromethoxy-phenyl)-2-aza-spiro[4.5]dec-8-yl]ester], the half-inhibitory concentration (IC50) was 60 nM.

With `CC(C)(C)c1ccc(N2CCC3(CCC(C(O)C(F)(F)F)CC3)C2=O)cc1` (single isomer, unassigned) [Example 360, (5α,8β)-2-(4-tert-Butyl-phenyl)-8-(2,2,2-trifluoro-1-hydroxy-ethyl)-2-aza-spiro[4.5]decan-1-one], the IC50 stood at 10 nM.

Consider `CCCSC[C@]1(O)CC[C@]2(CCN(c3ccc(OCC(F)(F)F)cc3)C2=O)CC1` [Example 294, (5α,8α)-8-Hydroxy-8-propylsulfanylmethyl-2-[4-(2,2,2-trifluoro-ethoxy)-phenyl]-2-aza-spiro[4.5]decan-1-one], for which the IC50 worked out at 20 nM. The value for `CC[C@]1(O)CC[C@]2(CCN(c3ccc(OS(=O)(=O)C4CC4)cc3)C2=O)CC1` [Example 183, 4-((5α,8α)-8-ethyl-8-hydroxy-1-oxo-2-aza-spiro[4.5]decan-2-yl)phenyl cyclopropanesulfonate] was 70 nM; that for `O=C1N(c2ccc(C3CC3)cc2)CC[C@]12CC[C@](O)(COCC(F)(F)F)CC2` [Example 288, (5α,8β)-2-(4-Cyclopropyl-phenyl)-8-hydroxy-8-(2,2,2-trifluoro-ethoxymethyl)-2-aza-spiro[4.5]decan-1-one] was 800 nM. Then `O=C(NCC1CC1)O[C@H]1CC[C@@]2(CCN(c3ccc(OC(F)(F)F)cc3)C2=O)CC1` [Example 22, (Cyclopropylmethyl)-carbamic acid [(5α,8β)-1-oxo-2-(4-trifluoromethoxy-phenyl)-2-aza-spiro[4.5]dec-8-yl]ester], with 60 nM; and `CC(C)[C@]1(O)CC[C@@]2(CCN(c3ccc(O[C@H](C)C(F)(F)F)nc3)C2=O)CC1` [Example 151, (5α,8β)-8-Hydroxy-8-isopropyl-2-[6-((R)-2,2,2-trifluoro-1-methyl-ethoxy)pyridin-3-yl]-2-aza-spiro[4.5]decan-1-one], with 1850 nM; and `CCc1ccc(N2CC[C@]3(CC[C@](O)(COCC(F)(F)F)CC3)C2=O)cc1` [Example 230, (5α,8β)-2-(4-Ethyl-phenyl)-8-hydroxy-8-(2,2,2-trifluoro-ethoxymethyl)-2-aza-spiro[4.5]decan-1-one], with 400 nM.

As for `C[C@H](Oc1ccc(N2CC[C@]3(CC[C@@](O)(COCC(F)F)CC3)C2=O)cc1)C(F)(F)F` [Example 299, (5α,8α)-8-(2,2-Difluoro-ethoxymethyl)-8-hydroxy-2-[4-((S)-2,2,2-trifluoro-1-methyl-ethoxy)-phenyl]-2-aza-spiro[4.5]decan-1-one], the IC50 is 10 nM. `CC[C@]1(O)CC[C@@]2(CCN(c3ccc(CC(F)(F)F)cc3)C2=O)CC1` [Example 80, (5α,8β)-8-Ethyl-8-hydroxy-2-[4-(2,2,2-trifluoro-ethyl)-phenyl]-2-aza-spiro[4.5]decan-1-one]: the IC50 was 910 nM.

Take `O=C1N(c2ccc(CC(F)(F)F)cc2)CC[C@]12CC[C@@](O)(COCC(F)(F)F)CC2` [Example 287, (5α,8α)-8-Hydroxy-8-(2,2,2-trifluoro-ethoxymethyl)-2-[4-(2,2,2-trifluoro-ethyl)-phenyl]-2-aza-spiro[4.5]decan-1-one]: the IC50 is 10 nM.

On to `CC(C)[C@]1(O)CC[C@]2(CCN(c3ccc(O[C@@H](C)C(F)(F)F)nc3)C2=O)CC1` [Example 148, (5α,8α)-8-Hydroxy-8-isopropyl-2-[6-((S)-2,2,2-trifluoro-1-methyl-ethoxy)pyridin-3-yl]-2-aza-spiro[4.5]decan-1-one], for which the IC50 was determined as 20 nM. Take `Cc1ccc(O[C@H]2CC[C@@]3(CCN(c4ccc(OC(F)(F)F)cc4)C3=O)CC2)nn1` [Example 21, (5α,8β)-8-(6-Methyl-pyridazin-3-yloxy)-2-(4-trifluoromethoxy-phenyl)-2-aza-spiro[4.5]decan-1-one]: the concentration for half-maximal inhibition (IC50) came out at 100 nM. Regarding `C[C@@H](Oc1ccc(N2CC[C@]3(CC[C@@](O)(COCC(F)F)CC3)C2=O)cn1)C(F)(F)F` [Example 314, (5α,8α)-8-(2,2-Difluoro-ethoxymethyl)-8-hydroxy-2-[6-((R)-2,2,2-trifluoro-1-methyl-ethoxy)-pyridin-3-yl]-2-aza-spiro[4.5]decan-1-one], the IC50 came out at 20 nM.

Regarding `O=C1N(c2ccc(OCC(F)(F)F)nc2)CC[C@]12CC[C@@](O)(CCC(F)(F)F)CC2` [Example 166, (5α,8α)-8-Hydroxy-2-[6-(2,2,2-trifluoro-ethoxy)-pyridin-3-yl]-8-(3,3,3-trifluoro-propyl)-2-aza-spiro[4.5]decan-1-one], the IC50 turned out to be 40 nM. Then `CCC[C@]1(O)CC[C@]2(CCN(c3ccc(CCC(F)(F)F)cc3)C2=O)CC1` [Example 170, (5α,8α)-8-Hydroxy-8-propyl-2-[4-(3,3,3-trifluoro-propyl)-phenyl]-2-aza-spiro[4.5]decan-1-one], with 50 nM.

For `COC[C@]1(O)CC[C@]2(CCN(c3ccc(OCC(F)(F)F)cc3)C2=O)CC1` [Example 258, (5α,8α)-8-Hydroxy-8-methoxymethyl-2-[4-(2,2,2-trifluoro-ethoxy)-phenyl]-2-aza-spiro[4.5]decan-1-one], the IC50 came to 70 nM.

`CC(C)(C)c1ccc(N2CCC3(CCC(O)(Cn4ccccc4=O)CC3)C2=O)cc1` (stereo not drawn) [Example 353, (5α,8α)-2-(4-tert-Butyl-phenyl)-8-hydroxy-8-(2-oxo-2H-pyridin-1-ylmethyl)-2-aza-spiro[4.5]decan-1-one]: the IC50 is 10 nM. As for `CC[C@]1(O)CC[C@]2(CCN(c3ccc(CCC(F)(F)F)cc3)C2=O)CC1` [Example 169, (5α,8α)-8-Ethyl-8-hydroxy-2-[4-(3,3,3-trifluoro-propyl)-phenyl]-2-aza-spiro[4.5]decan-1-one], the IC50 is 50 nM. On to `CCC[C@]1(O)CC[C@]2(CCN(c3ccc(S(=O)(=O)CC)cc3)C2=O)CC1` [Example 187, (5α,8α)-2-(4-Ethanesulfonyl-phenyl)-8-hydroxy-8-propyl-2-aza-spiro[4.5]decan-1-one], for which the IC50 was found to be 650 nM. In the case of `CC[C@]1(O)CC[C@]2(CCN(c3ccc(OC(F)(F)F)cc3)C2=O)CC1` [Example 60, (5α,8α)-8-Ethyl-8-hydroxy-2-(4-trifluoromethoxy-phenyl)-2-aza-spiro[4.5]decan-1-one], the IC50 was determined as 30 nM. Then `O=C1N(c2ccc(OC(F)(F)F)cc2)CC[C@]12CC[C@@](O)(C(F)(F)F)CC2` [Example 112, (5α,8α)-8-Hydroxy-2-(4-trifluoromethoxy-phenyl)-8-trifluoromethyl-2-aza-spiro[4.5]decan-1-one], with 20 nM. `CCCOC[C@]1(O)CC[C@]2(CCN(c3ccc(O[C@H](C)C(F)(F)F)nc3)C2=O)CC1` [Example 312, (5α,8α)-8-Hydroxy-8-propoxymethyl-2-[6-((R)-2,2,2-trifluoro-1-methyl-ethoxy)-pyridin-3-yl]-2-aza-spiro[4.5]decan-1-one]: the IC50 is 10 nM.

The values above are taken from patent US8440710B2, “HSL inhibitors useful in the treatment of diabetes” (Hoffmann-La Roche Inc., priority 2009, dated 2013).
